Laboratory results published in PubChem BioAssay (NCI).
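Step 1: Grow cells in 96-well plates. Step 2: Expose to compound for 48 hours at 5 concentrations. Step 3: Interpolate endpoints linearly; if unreached, use highest concentration. TGI denotes the concentration required for complete inhibition of growth.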

Legend:
Experiment in all cases: NCI-60 cell line screen, 48 h
NCI-H460 lung = tested on: NCI-H460 lung
OVCAR-3 ovarian = tested on: OVCAR-3 ovarian
K-562 leukemia = tested on: K-562 leukemia
COLO 205 colon = tested on: COLO 205 colon
HCT-116 colon = tested on: HCT-116 colon
RXF 393 renal = tested on: RXF 393 renal
MDA-MB-231 breast = tested on: MDA-MB-231 breast
SK-MEL-28 melanoma = tested on: SK-MEL-28 melanoma
IGROV1 ovarian = tested on: IGROV1 ovarian
SN12C renal = tested on: SN12C renal
A549 NSCLC = tested on: A549 NSCLC
A498 renal = tested on: A498 renal
CCRF-CEM leukemia = tested on: CCRF-CEM leukemia
SNB-75 CNS = tested on: SNB-75 CNS
ACHN renal = tested on: ACHN renal
HCT-15 colon = tested on: HCT-15 colon
HCC-2998 colon = tested on: HCC-2998 colon
786-0 renal = tested on: 786-0 renal
UO-31 renal = tested on: UO-31 renal
SW-620 colon = tested on: SW-620 colon
OVCAR-4 ovarian = tested on: OVCAR-4 ovarian
OVCAR-8 ovarian = tested on: OVCAR-8 ovarian
OVCAR-5 ovarian = tested on: OVCAR-5 ovarian
KM12 colon = tested on: KM12 colon
TK-10 renal = tested on: TK-10 renal
HOP-92 NSCLC = tested on: HOP-92 NSCLC
MCF7 breast = tested on: MCF7 breast
SF-539 CNS = tested on: SF-539 CNS
HT29 colon = tested on: HT29 colon
SR leukemia = tested on: SR leukemia
MDA-MB-435 = tested on: MDA-MB-435
NCI-H23 lung = tested on: NCI-H23 lung
UACC-62 melanoma = tested on: UACC-62 melanoma
M14 melanoma = tested on: M14 melanoma
HS 578T breast = tested on: HS 578T breast
SK-OV-3 ovarian = tested on: SK-OV-3 ovarian
UACC-257 melanoma = tested on: UACC-257 melanoma
MDA-N = tested on: MDA-N
SK-MEL-5 melanoma = tested on: SK-MEL-5 melanoma
LOX IMVI melanoma = tested on: LOX IMVI melanoma
HOP-62 NSCLC = tested on: HOP-62 NSCLC
U251 CNS = tested on: U251 CNS
SNB-19 CNS = tested on: SNB-19 CNS
T-47D breast = tested on: T-47D breast
NCI-H226 lung = tested on: NCI-H226 lung
NCI/ADR-RES ovarian = tested on: NCI/ADR-RES ovarian
DU-145 prostate = tested on: DU-145 prostate
SF-268 CNS = tested on: SF-268 CNS
CAKI-1 renal = tested on: CAKI-1 renal
MOLT-4 leukemia = tested on: MOLT-4 leukemia
NCI-H522 lung = tested on: NCI-H522 lung
EKVX NSCLC = tested on: EKVX NSCLC
PC-3 prostate = tested on: PC-3 prostate
SF-295 CNS = tested on: SF-295 CNS
MALME-3M melanoma = tested on: MALME-3M melanoma
SK-MEL-2 melanoma = tested on: SK-MEL-2 melanoma
HL-60(TB) leukemia = tested on: HL-60(TB) leukemia
BT-549 breast = tested on: BT-549 breast
RPMI-8226 leukemia = tested on: RPMI-8226 leukemia

O=C1CCCCCCCCCCC1CCCCCBr (stereo not drawn)
TGI (NCI-H460 lung): > 100 µM
TGI (OVCAR-3 ovarian): 44.7 µM
TGI (K-562 leukemia): 34.5 µM
TGI (COLO 205 colon): 35.8 µM
TGI (HCT-116 colon): 45.9 µM
TGI (RXF 393 renal): 43.8 µM
TGI (MDA-MB-231 breast): 45.1 µM
TGI (SK-MEL-28 melanoma): 84.4 µM
TGI (IGROV1 ovarian): 56.2 µM
TGI (SN12C renal): 43.1 µM
TGI (A549 NSCLC): > 100 µM
TGI (A498 renal): 28.2 µM
TGI (CCRF-CEM leukemia): 35 µM
TGI (SNB-75 CNS): 49.8 µM
TGI (ACHN renal): 84 µM
TGI (HCT-15 colon): 56.8 µM
TGI (HCC-2998 colon): 38.6 µM
TGI (786-0 renal): 86 µM
TGI (UO-31 renal): 65.9 µM
TGI (SW-620 colon): > 100 µM
TGI (OVCAR-4 ovarian): 67.2 µM
TGI (OVCAR-8 ovarian): > 100 µM
TGI (OVCAR-5 ovarian): 67.1 µM
TGI (KM12 colon): 53.7 µM
TGI (TK-10 renal): > 100 µM
TGI (HOP-92 NSCLC): 67.6 µM
TGI (MCF7 breast): 63.3 µM
TGI (SF-539 CNS): 59.1 µM
TGI (HT29 colon): 95.6 µM
TGI (SR leukemia): 44.1 µM
TGI (MDA-MB-435): 97.7 µM
TGI (NCI-H23 lung): 74.8 µM
TGI (UACC-62 melanoma): > 100 µM
TGI (M14 melanoma): 83.6 µM
TGI (HS 578T breast): > 100 µM
TGI (SK-OV-3 ovarian): > 100 µM
TGI (UACC-257 melanoma): 58.5 µM
TGI (MDA-N): > 100 µM
TGI (SK-MEL-5 melanoma): 31.2 µM
TGI (LOX IMVI melanoma): 37.8 µM
TGI (HOP-62 NSCLC): > 100 µM
TGI (U251 CNS): 43.3 µM
TGI (SNB-19 CNS): 64.7 µM
TGI (T-47D breast): 73.9 µM
TGI (NCI-H226 lung): 40 µM
TGI (NCI/ADR-RES ovarian): 64.3 µM
TGI (DU-145 prostate): > 100 µM
TGI (SF-268 CNS): > 100 µM
TGI (CAKI-1 renal): 95.1 µM
TGI (MOLT-4 leukemia): 33.6 µM
TGI (NCI-H522 lung): 44.4 µM
TGI (EKVX NSCLC): > 100 µM
TGI (PC-3 prostate): > 100 µM
TGI (SF-295 CNS): > 100 µM
TGI (MALME-3M melanoma): 38.4 µM
TGI (SK-MEL-2 melanoma): 32.4 µM

Cc1ccc(N2C(=O)C=C(C3=C(O)C(=O)N(c4ccc(C)cc4)C3=O)C2=O)cc1
TGI (NCI-H460 lung): > 100 µM
TGI (OVCAR-3 ovarian): > 100 µM
TGI (K-562 leukemia): > 100 µM
TGI (COLO 205 colon): > 100 µM
TGI (HCT-116 colon): > 100 µM
TGI (MDA-MB-231 breast): > 100 µM
TGI (SK-MEL-28 melanoma): > 100 µM
TGI (IGROV1 ovarian): > 100 µM
TGI (SN12C renal): > 100 µM
TGI (A549 NSCLC): > 100 µM
TGI (HL-60(TB) leukemia): > 100 µM
TGI (A498 renal): > 100 µM
TGI (CCRF-CEM leukemia): > 100 µM
TGI (SNB-75 CNS): > 100 µM
TGI (ACHN renal): > 100 µM
TGI (HCT-15 colon): > 100 µM
TGI (BT-549 breast): > 100 µM
TGI (HCC-2998 colon): > 100 µM
TGI (786-0 renal): > 100 µM
TGI (UO-31 renal): > 100 µM
TGI (SW-620 colon): > 100 µM
TGI (OVCAR-4 ovarian): > 100 µM
TGI (OVCAR-8 ovarian): > 100 µM
TGI (OVCAR-5 ovarian): > 100 µM
TGI (TK-10 renal): > 100 µM
TGI (HOP-92 NSCLC): > 100 µM
TGI (MCF7 breast): > 100 µM
TGI (HT29 colon): > 100 µM
TGI (SR leukemia): > 100 µM
TGI (MDA-MB-435): > 100 µM
TGI (NCI-H23 lung): > 100 µM
TGI (UACC-62 melanoma): > 100 µM
TGI (M14 melanoma): > 100 µM
TGI (SK-OV-3 ovarian): > 100 µM
TGI (UACC-257 melanoma): > 100 µM
TGI (MDA-N): > 100 µM
TGI (SK-MEL-5 melanoma): > 100 µM
TGI (LOX IMVI melanoma): > 100 µM
TGI (HOP-62 NSCLC): > 100 µM
TGI (U251 CNS): > 100 µM
TGI (SNB-19 CNS): > 100 µM
TGI (T-47D breast): > 100 µM
TGI (NCI-H226 lung): > 100 µM
TGI (NCI/ADR-RES ovarian): > 100 µM
TGI (DU-145 prostate): > 100 µM
TGI (SF-268 CNS): > 100 µM
TGI (MOLT-4 leukemia): > 100 µM
TGI (EKVX NSCLC): > 100 µM
TGI (PC-3 prostate): > 100 µM
TGI (RPMI-8226 leukemia): > 100 µM
TGI (SF-295 CNS): > 100 µM
TGI (MALME-3M melanoma): > 100 µM
